Consider one compound from patent US7897750B2, “Strategies for gene expression analysis” (Althea Technologies, Inc., priority 2002, dated 2011).

This assay concerns HepG2 cells. Put plainly: Multiplex rtPCR gene expression time course (15-plex) in treated cells. It counts as cell-based. Conditions: 5×10^4 HepG2 cells, 25 μM, timepoints T=0, 2, 4, 8, 24, 48, 120 hours, triplicate, FIG. 9. The method, then:
Cells were treated in triplicate and timepoints were collected at T=0, 2, 4, 8, 24, 48, and 120 hours. RNA was isolated using Qiagen's RNeasy kit for 96 well plates and the concentration was monitored using a Ribogreen Assay (Molecular Probes). The concentration of RNA from each sample was normalized to 5 ng/μl. rtPCR was carried out using 25 ng of RNA from each sample and the products were analyzed using an ABI 3100 Genetic Analyzer. Gene expression is expressed as a ratio to that of GAPDH. The multiplex included the following list of genes.
CV's for all genes and data points within the experiment ranged from a few percent to 20%.

`CC[C@H]1CN2CCc3cc(OC)c(OC)cc3[C@@H]2C[C@@H]1C[C@H]1NCCc2cc(OC)c(OC)cc21` [emitine]: the “GRO1 gene expression, ratio to that of GAPDH” value is listed as “clear trends of induction” and the “Il-8 gene expression, ratio to that of GAPDH” value is “clear trends of induction”.
